Molecular target: 5-hydroxytryptamine receptor 1E (Homo sapiens, UniProt P28566)
Sequence (P28566 whole entry): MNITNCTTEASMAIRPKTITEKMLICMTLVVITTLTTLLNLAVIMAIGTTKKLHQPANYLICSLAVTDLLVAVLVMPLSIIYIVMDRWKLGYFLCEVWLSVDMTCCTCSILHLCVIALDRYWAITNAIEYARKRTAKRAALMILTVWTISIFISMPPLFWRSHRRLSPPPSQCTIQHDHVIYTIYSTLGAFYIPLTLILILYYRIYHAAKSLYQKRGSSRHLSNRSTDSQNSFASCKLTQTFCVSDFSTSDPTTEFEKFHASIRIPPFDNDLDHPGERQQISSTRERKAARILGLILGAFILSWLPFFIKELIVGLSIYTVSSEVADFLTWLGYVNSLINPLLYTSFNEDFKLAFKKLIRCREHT

Row | SMILES | Ki [µM]
1 | CCC(=O)c1ccc(N)cc1 [CAS_6270] | > 10
2 | Cn1cc(CCN)c2cc(O)ccc21 [5-HT,omega-N-Me] | 0.121
3 | NCCc1c[nH]c2ccc(C(N)=O)cc12 [[3H]-5-carboxamidotryptamine] | > 10
4 | O=C(c1ccc(F)cc1)C1CCN(CCn2c(=O)[nH]c3ccccc3c2=O)CC1 [3-(2-{4-[(4-fluorophenyl)carbonyl]piperidin-1-yl}ethyl)-1,2,3,4-tetrahydroquinazoline-2,4-dione] | > 10
5 | CC(CO)NC(=O)C1C=C2c3cccc4[nH]cc(c34)CC2N(C)C1 (stereo not drawn) [CAS_60-79-7] | 0.088
6 | COc1cc(N)c(Cl)cc1C(=O)NC1CN2CCC1CC2 (stereo not drawn) [ZACOPRIDE,R] | > 10
7 | CC(C)NCC(O)COc1cccc2[nH]ccc12 (stereo not drawn) [LB-46] | > 10
8 | COC(=O)[C@@H]1[C@H]2C[C@H]3c4[nH]c5ccccc5c4CCN3C[C@@H]2CC[C@@H]1O [yohimbic acid methyl ester] | 3.43

— BindingDB's records for PubMed 1513320 (Synaptic Pharmaceutical, 1992)
